One test deals with T1, FPR2 (Homo sapiens, UniProt P25090).
T1 construct: expressed in transfected cells; host or cells: RBL cells (RBL-FPR2)
T1 sequence (P25090 1-351): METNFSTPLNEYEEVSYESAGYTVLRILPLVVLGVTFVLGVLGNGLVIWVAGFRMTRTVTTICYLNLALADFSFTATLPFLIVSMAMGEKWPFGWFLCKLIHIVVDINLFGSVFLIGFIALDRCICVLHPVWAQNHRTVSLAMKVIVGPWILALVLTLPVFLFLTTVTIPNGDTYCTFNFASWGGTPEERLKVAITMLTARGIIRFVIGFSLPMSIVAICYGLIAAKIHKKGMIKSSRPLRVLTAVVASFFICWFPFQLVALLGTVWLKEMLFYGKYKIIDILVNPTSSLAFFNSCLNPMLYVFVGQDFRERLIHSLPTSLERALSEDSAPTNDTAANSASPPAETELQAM
In words: Change in calcium activity by peptide (Fura-2) in RBL cells overexpressing FPR2. The test is classed as cell-based. The note with it: calcium activity (Fura-2), graded per Table 3, read-out: EC50 for [Ca^2+] FPR2. Put shortly:
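Peptide-induced intracellular calcium change measured by Fura-2 fluorescence on a plate reader. Cells: RBL line overexpressing FPR2, dye-loaded 1 h at 37 °C then 30 min at RT in dark; peptides from 0.5 mM water/50% DMSO stocks, diluted in HBSS with 20 mM HEPES.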

In the next test the target is T2, FPR1 (Homo sapiens, UniProt P21462).
T2 sequence (P21462 1-350): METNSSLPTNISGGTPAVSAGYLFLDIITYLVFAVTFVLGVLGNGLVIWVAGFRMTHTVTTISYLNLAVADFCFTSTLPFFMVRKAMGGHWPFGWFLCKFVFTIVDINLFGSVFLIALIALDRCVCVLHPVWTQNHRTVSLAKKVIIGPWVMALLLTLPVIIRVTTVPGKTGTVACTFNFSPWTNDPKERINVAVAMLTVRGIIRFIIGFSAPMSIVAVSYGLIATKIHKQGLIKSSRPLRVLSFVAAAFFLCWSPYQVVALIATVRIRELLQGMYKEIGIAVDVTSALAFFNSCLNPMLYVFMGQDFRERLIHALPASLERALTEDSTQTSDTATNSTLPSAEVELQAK
In words: Change in calcium activity by peptide, FPR1 activation effect. It is filed as cell-based. The note with it: calcium activity (Fura-2), graded per Table 3, read-out: EC50 for [Ca^2+] FPR1. Put shortly:
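Calcium flux induced by peptide addition was monitored on a FlexStation 3 plate reader. Before this, cells seeded a day earlier (3×10^5/well) took up the Fura-2 dye for 1 h at 37 °C plus 30 min dark at room temperature.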

Molecules are shown by their SMILES. Peptide text beside a SMILES is read from it.

Consider `CSCC[C@@H](NC(=O)[C@@H]1CCCN1C(=O)[C@H](Cc1c[nH]c2ccccc12)NC(=O)[C@H](Cc1ccc(O)cc1)NC(=O)[C@H](CCCNC(=N)N)NC(=O)[C@@H](N)Cc1c[nH]c2ccccc12)C(N)=O` [Peptide 118] (HELM PEPTIDE1{W.R.Y.W.P.[dM].[am]}$$$$V2.0), for which the EC50 on FPR2 was less than 10 nM; on FPR1 it was 101 to 1000 nM.

On to `CSCC[C@@H](NC(=O)[C@@H](NC(=O)[C@H](Cc1c[nH]c2ccccc12)NC(=O)[C@H](Cc1ccc(O)cc1)NC(=O)[C@H](CCCNC(=N)N)NC(=O)[C@H](Cc1c[nH]c2ccccc12)NC(C)=O)C(C)C)C(N)=O` [Peptide 102] (HELM PEPTIDE1{[ac].W.R.Y.W.V.[dM].[am]}$$$$V2.0), for which the EC50 is less than 10 nM at FPR2 and 101 to 1000 nM on FPR1.

Consider `CSCC[C@H](NC(=O)[C@H](CCCNC(=N)N)NC(C)=O)C(=O)N[C@@H](CCCNC(=N)N)C(=O)N[C@@H](Cc1ccc(O)cc1)C(=O)N[C@@H](Cc1c[nH]c2ccccc12)C(=O)N1CCC[C@H]1C(=O)N[C@H](CCSC)C(N)=O` [Peptide 107] (HELM PEPTIDE1{[ac].R.M.R.Y.W.P.[dM].[am]}$$$$V2.0), for which the figures for the EC50 on FPR2 and at FPR1 were less than 10 nM and 101 to 1000 nM, respectively.

On to `CSCC[C@H](NC(=O)[C@@H](N)CCCNC(=N)N)C(=O)N[C@@H](CCCNC(=N)N)C(=O)N[C@@H](Cc1ccc(O)cc1)C(=O)N[C@@H](Cc1ccc(O)cc1)C(=O)N[C@H](C(=O)N[C@H](CCSC)C(N)=O)C(C)C` [Peptide 97] (HELM PEPTIDE1{R.M.R.Y.Y.V.[dM].[am]}$$$$V2.0), for which the concentration for a half-maximal effect (EC50) on FPR2 was less than 10 nM; on FPR1, 1000 to 10000 nM.

With `CSCC[C@H](N)C(=O)N[C@@H](CCCCN)C(=O)N[C@@H](Cc1ccc(O)cc1)C(=O)N[C@@H](Cc1c[nH]c2ccccc12)C(=O)N[C@@H](Cc1ccc(O)cc1)C(=O)N[C@H](CCSC)C(N)=O` [Peptide 89] (HELM PEPTIDE1{M.K.Y.W.Y.[dM].[am]}$$$$V2.0), the EC50 was less than 10 nM on FPR2 and greater than 10000 nM at FPR1.

In the case of `CSCC[C@@H](NC(=O)[C@@H]1CCCN1C(=O)[C@H](CCCCN)NC(=O)[C@H](Cc1ccc(O)cc1)NC(=O)[C@H](CCCCN)NC(=O)[C@@H](N)Cc1c[nH]cn1)C(N)=O` [Peptide 146] (HELM PEPTIDE1{H.K.Y.K.P.[dM].[am]}$$$$V2.0), the EC50 is less than 10 nM at FPR2 and greater than 10000 nM at FPR1.

Turning to `CSCC[C@H](N)C(=O)N[C@@H](CCCNC(=N)N)C(=O)N[C@@H](Cc1ccc(O)cc1)C(=O)N[C@@H](Cc1ccc(O)cc1)C(=O)N1CCC[C@H]1C(=O)N[C@H](CCSC)C(N)=O` [Peptide 120] (HELM PEPTIDE1{M.R.Y.Y.P.[dM].[am]}$$$$V2.0), the EC50 on FPR2 is less than 10 nM; on FPR1, 101 to 1000 nM.

As to `CSCC[C@H](NC(=O)[C@@H](N)Cc1c[nH]cn1)C(=O)N[C@@H](CCCNC(=N)N)C(=O)N[C@@H](Cc1ccc(O)cc1)C(=O)N[C@@H](CCCNC(=N)N)C(=O)N[C@H](C(=O)N[C@H](CCSC)C(N)=O)C(C)C` [Peptide 31] (HELM PEPTIDE1{H.M.R.Y.R.V.[dM].[am]}$$$$V2.0), the figures for the EC50 at FPR2 and on FPR1 were less than 10 nM and 1000 to 10000 nM, respectively.

Take `CSCC[C@@H](NC(=O)[C@@H](NC(=O)[C@H](Cc1ccc(O)cc1)NC(=O)[C@H](Cc1ccc(O)cc1)NC(=O)[C@H](CCCNC(=N)N)NC(=O)[C@H](Cc1c[nH]c2ccccc12)NC(C)=O)C(C)C)C(N)=O` [Peptide 95] (HELM PEPTIDE1{[ac].W.R.Y.Y.V.[dM].[am]}$$$$V2.0): the EC50 on FPR2 lay within 11 to 100 nM; on FPR1, 101 to 1000 nM.

As to `CCCCCCCC(=O)N1CCC[C@H]1C(=O)N[C@@H](CCSC)C(=O)N[C@@H](CCCNC(=N)N)C(=O)N[C@@H](Cc1ccc(O)cc1)C(=O)N[C@@H](CCCCN)C(=O)N1CCC[C@H]1C(=O)N[C@H](CCSC)C(N)=O` [Peptide 65] (HELM PEPTIDE1{[CCCCCCCC(=O)[*:2]].P.M.R.Y.K.P.[dM].[am]}$$$$V2.0), the values for the EC50 at FPR2 and on FPR1 were less than 10 nM and greater than 10000 nM, respectively.

As to `CCCC(=O)N[C@@H](CCCNC(=N)N)C(=O)N[C@@H](CCSC)C(=O)N[C@@H](CCCNC(=N)N)C(=O)N[C@@H](Cc1ccc(O)cc1)C(=O)N[C@@H](Cc1c[nH]c2ccccc12)C(=O)N[C@@H](Cc1ccc(O)cc1)C(=O)N[C@H](CCSC)C(N)=O` [Peptide 83] (HELM PEPTIDE1{[CCCC(=O)[*:2]].R.M.R.Y.W.Y.[dM].[am]}$$$$V2.0), the EC50 at FPR2 was less than 10 nM; on FPR1 it was greater than 10000 nM.

As for `CSCC[C@H](NC(=O)[C@@H](N)CCCNC(=N)N)C(=O)N[C@@H](CCCNC(=N)N)C(=O)N[C@@H](Cc1ccc(O)cc1)C(=O)N[C@@H](CCCCN)C(=O)N[C@H](C(=O)N[C@H](CCSC)C(N)=O)C(C)C` [Peptide 5] (HELM PEPTIDE1{R.M.R.Y.K.V.[dM].[am]}$$$$V2.0), the EC50 is less than 10 nM at FPR2 and greater than 10000 nM at FPR1.

Consider `CSCC[C@H](NC(C)=O)C(=O)N[C@@H](CCCNC(=N)N)C(=O)N[C@@H](Cc1ccc(O)cc1)C(=O)N[C@@H](Cc1c[nH]c2ccccc12)C(=O)N[C@H](C(=O)N[C@H](CCSC)C(N)=O)C(C)C` [Peptide 105] (HELM PEPTIDE1{[ac].M.R.Y.W.V.[dM].[am]}$$$$V2.0), for which the EC50 was less than 10 nM at FPR2 and 101 to 1000 nM on FPR1.

As for `CCCCCCCC(=O)N[C@@H](CCCCN)C(=O)N[C@@H](CCSC)C(=O)N[C@@H](CCCCN)C(=O)N[C@@H](Cc1ccc(O)cc1)C(=O)N[C@@H](CCCCN)C(=O)N[C@H](C(=O)N[C@H](CCSC)C(N)=O)C(C)C` [Peptide 12] (HELM PEPTIDE1{[CCCCCCCC(=O)[*:2]].K.M.K.Y.K.V.[dM].[am]}$$$$V2.0), the EC50 on FPR2 is 11 to 100 nM; at FPR1, greater than 10000 nM.

As for `CSCC[C@H](NC(=O)[C@H](CCCCN)NC(C)=O)C(=O)N[C@@H](CCCCN)C(=O)N[C@@H](Cc1ccc(O)cc1)C(=O)N[C@@H](CCCCN)C(=O)N1CCC[C@H]1C(=O)N[C@H](CCSC)C(N)=O` [Peptide 67] (HELM PEPTIDE1{[ac].K.M.K.Y.K.P.[dM].[am]}$$$$V2.0), the EC50 at FPR2 is less than 10 nM; at FPR1, greater than 10000 nM.

Turning to `CCCCCCCC(=O)N[C@@H](CCCNC(=N)N)C(=O)N[C@@H](CCSC)C(=O)N[C@@H](CCCNC(=N)N)C(=O)N[C@@H](Cc1ccc(O)cc1)C(=O)N[C@@H](CCCCN)C(=O)N1CCC[C@H]1C(=O)N[C@H](CCSC)C(N)=O` [Peptide 53] (HELM PEPTIDE1{[CCCCCCCC(=O)[*:2]].R.M.R.Y.K.P.[dM].[am]}$$$$V2.0), the concentration for a half-maximal effect (EC50) is less than 10 nM on FPR2 and greater than 10000 nM on FPR1.

For `CSCC[C@H](NC(C)=O)C(=O)N[C@@H](CCCNC(=N)N)C(=O)N[C@@H](Cc1ccc(O)cc1)C(=O)N[C@@H](CCCCN)C(=O)N[C@@H](Cc1ccc(O)cc1)C(=O)N[C@H](CCSC)C(N)=O` [Peptide 42] (HELM PEPTIDE1{[ac].M.R.Y.K.Y.[dM].[am]}$$$$V2.0), the figures for the EC50 on FPR2 and on FPR1 were 11 to 100 nM and greater than 10000 nM, respectively.

Regarding `CSCC[C@@H](NC(=O)[C@H](Cc1ccc(O)cc1)NC(=O)[C@H](Cc1ccc(O)cc1)NC(=O)[C@H](Cc1ccc(O)cc1)NC(=O)[C@H](CCCNC(=N)N)NC(=O)[C@H](Cc1c[nH]c2ccccc12)NC(=O)[C@@H](N)CCCNC(=N)N)C(N)=O` [Peptide 123] (HELM PEPTIDE1{R.W.R.Y.Y.Y.[dM].[am]}$$$$V2.0), the results for the EC50 on FPR2 and at FPR1 were less than 10 nM and greater than 10000 nM, respectively.

Turning to `CSCC[C@H](NC(=O)[C@@H](N)CCCNC(=N)N)C(=O)N[C@@H](CCCNC(=N)N)C(=O)N[C@@H](Cc1ccc(O)cc1)C(=O)N[C@@H](CCCNC(=N)N)C(=O)N[C@H](C(=O)N[C@H](CCSC)C(N)=O)C(C)C` [Peptide 30] (HELM PEPTIDE1{R.M.R.Y.R.V.[dM].[am]}$$$$V2.0), the EC50 is less than 10 nM at FPR2 and greater than 10000 nM at FPR1.

On to `CCCCCCCC(=O)N[C@@H](CCCNC(=N)N)C(=O)N[C@@H](Cc1c[nH]c2ccccc12)C(=O)N[C@@H](CCCNC(=N)N)C(=O)N[C@@H](Cc1ccc(O)cc1)C(=O)N[C@@H](CCCCN)C(=O)N[C@@H](Cc1ccc(O)cc1)C(=O)N[C@H](CCSC)C(N)=O` [Peptide 34] (HELM PEPTIDE1{[CCCCCCCC(=O)[*:2]].R.W.R.Y.K.Y.[dM].[am]}$$$$V2.0), for which the EC50 at FPR2 was 11 to 100 nM; on FPR1 it was greater than 10000 nM.

For the compound `CCCCCCCC(=O)N[C@@H](Cc1c[nH]cn1)C(=O)N[C@@H](CCSC)C(=O)N[C@@H](CCCCN)C(=O)N[C@@H](Cc1ccc(O)cc1)C(=O)N[C@@H](CCCCN)C(=O)N[C@H](C(=O)N[C@H](CCSC)C(N)=O)C(C)C` [Peptide 24] (HELM PEPTIDE1{[CCCCCCCC(=O)[*:2]].H.M.K.Y.K.V.[dM].[am]}$$$$V2.0), the EC50 at FPR2 is less than 10 nM; on FPR1 it was greater than 10000 nM.

Usually EC50 stands for the midpoint of the concentration-response curve.

Source of the values: US20250361268A1, “NOVEL ANTI-INFLAMMATORY PEPTIDE AND USE THEREOF” (NOVACELL TECHNOLOGY INC., priority 2022, published 2025).
